The text below walks through data of US9433588B2, “Delivery of submicrometer and nanometer aerosols to the lungs using hygroscopic excipients or dual stream nasal delivery” (Virginia Commonwealth Univeristy, priority 2009, dated 2016).

Read-outs that look alike come from different tables or passages of the source. Marks after values point to notes of the source that are not given here.

A short description of data set [1]: In vitro growth system for validation of the numerical model (CAG, growth zone, MOUDI). The data set is classed as physicochemical. The protocol: Submicrometer drug and drug-hygroscopic excipient particles were formed using a capillary aerosol generator (CAG). The capillary aerosol generation system is described and considered in detail by the previous studies of Hindle et al. (1998) and Longest et al. (2007). In the current study, the formulation was a mixture of 50% water and 50% ethanol by weight to dissolve both hydrophilic and hydrophobic drugs. This solution was heated and pumped through the CAG at a flow rate of 10 mg/s to form the spray aerosol. Single drug and drug-hygroscopic excipient particles were created experimentally for albuterol sulfate (AS), budesonide (BD), and sodium chloride (NaCl). Specifically, single component drug particles were formed using a 0.2% w/v AS solution and a 0.15% w/v BD solution, respectively. Combination drug-hygroscopic excipient particles were generated using a 0.1% AS-0.1% NaCl w/v solution and a 0.1% BD-0.1% NaCl w/v solution, respectively. The spray aerosol was allowed to dry into solid particles by passage through a 52 cm length of dry tubing (FIG. 3). Initial particle size was then assessed by connecting the tubing to a 10 stage MOUDI (MSP Corp, Shoreview, Minn.). To produce growth, the aerosol stream was combined with humidified air at T=25° C. and RH=99% sampled from an environmental cabinet. […] This length was selected to provide a residence time of approximately 0.2 s, which is consistent with the time required for an orally inhaled pharmaceutical aerosol to reach the main bifurcation of the lungs under standard inhalation conditions. Walls of the growth section were pre-wetted to simulate the wet walled conditions of the respiratory tract, which stimulates aerosol growth. The growth tube was not heated and was exposed to 24° C. room temperature air for this initial validation experiment. After exiting the growth tube, the aerosol was passed into the 10 stage MOUDI for size characterization.
In separate experiments, the temperature and humidity of the humidified air and the temperature of the aerosol mixture stream at the inlet to the condensational growth tube were measured. […]
The initial aerodynamic particle size distribution of the aerosol exiting the drying section of tubing was determined using the 10 stage MOUDI operated at 30±2 L/min, which allowed size fractionation between 50 nm and 10 μm. […] The final aerodynamic particle size distribution of the aerosol exiting the condensational growth tube was also determined using the MOUDI operated at 30±2 L/min. […] The mass of drug and excipient on each impaction plate was determined and used to calculate both the initial and final aerodynamic particle size distributions of the drug and combination aerosols. […]

Data set [2] in a line: Generation of submicrometer aerosol with small particle aerosol generator (SPAG) and drying gas. The data set is classed as physicochemical. To be noted: SPAG nebulized and dried; 560 nm: 0.1% solution, 7.5 and 3 L/min; 900 nm: 0.5% solution, 7 and 3 L/min. The protocol: With LFT, a heated air source is not present for aerosol size reduction, as with HFT. However, medical gases used with LFT (oxygen and helium-oxygen) are typically dry. A study was conducted to evaluate if dry medical-grade gas could be used to produce a submicrometer aerosol from a commercially available nebulizer. A small particle aerosol generator (SPAG) was employed, which functions as a jet nebulizer with an additional relatively large and inefficient drying chamber. […] Specifically, albuterol sulfate solutions were nebulized and dried using a series of nebulizer airflow conditions to produce aerosols with initial mean MMADs (and standard deviations) of 150 (5.5) nm, 560 (11.4) nm, and 900 (32.7) nm (FIG. 11). The 560 nm aerosol was generated using a 0.1% albuterol sulfate in water solution with a nebulizer gas flow rate of 7.5 L/min and a drying gas flow rate of 3 L/min. […]
Nano-sized aqueous-based drug aerosols were generated using a small particle aerosol generator (SPAG-6000, ICN Pharmaceuticals, Costa Mesa, Calif.), and were delivered through a nasal model geometry airway in the presence and absence of ECG conditions. Albuterol sulfate solutions were nebulized using a series of nebulizer airflow conditions to produce aerosols with initial mean (SD) measured size of 900 (32.7) nm. […]

The nature of data set [3]: Hygroscopic growth tube, CAG nanoparticle aerosols sized by cascade impactor. The data set is classed as physicochemical. To be noted: Table 2. The protocol:
Budesonide nanoparticle aerosols were generated using the Capillary Aerosol Generator (CAG). This technology represents a generic means of producing engineered pharmaceutical nanosized particles suitable for inhalation. The CAG utilizes controlled heating of a liquid formulation passing through a capillary tube to produce nanosized dry particles exiting the capillary nozzle.
Hygroscopic growth of these nanoparticle aerosols was evaluated by passing the aerosol through a growth tube. Briefly, following nanoparticle generation the aerosols were drawn through the 29 cm hygroscopic growth tube at a flow rate of 30 L/min. The tube was held at 37° C. and 99% relative humidity (RH) to simulate expected lung conditions. The growth tube was approximately 29 cm, which is consistent with the distance from the mouth inlet to the main bronchi of an adult. Following passage through the tubular geometry the aerosols were delivered to the 10-stage MOUDI or Andersen Cascade Impactor (ACI; Graseby-Andersen Inc, Smyrna, Ga.) for particle sizing. Both the tubular geometry and the cascade impactor were placed in an environmental chamber (Espec Environmental Cabinet, Hudsonville, Mich.) to maintain constant temperature and humidity conditions. The ACI was employed following hygroscopic growth when it was expected that the aerosols produced would be in the 1-3 μm size range. For these studies, the final aerodynamic particle size distribution of the aerosol exiting the hygroscopic growth tube was determined at 28±2 L/min, and humidified co-flow air (99% RH) was supplied to the impactor. […] The mass of drug on each impaction plate was determined and used to calculate both the initial and final aerodynamic particle size distributions of the drug aerosols. The growth ratios were calculated by comparing the final size with the initial size of the nanoparticle as a measure of hygroscopic size increase.
Hygroscopic growth of these nanoparticle aerosols was evaluated by passing the aerosol through a growth tube as described in Example 1. […]

Data set [4] in a line: Hygroscopic properties of drugs and excipients (saturation limits, i coefficients, hygroscopic parameter). The data set is classed as physicochemical. Conditions: for Saturated mass fraction (mfsat): mass fraction that can be dissolved in liquid water at 25° C.; for Predicted van't Hoff factor (i): measured in this study, best fit of Eq. (15) to water activity data; for Saturated mole fraction (χsat): mole fraction that can be dissolved in liquid water at 25° C. The protocol:
It is noted that Eq. (15) has a form similar to Raoult's law and is valid for materials that may (i>1) or may not (i=1) dissociate upon dissolution. Specifically, Raoult's law provides a linear expression to describe activity coefficients at low solute concentrations, as presented by Finlay (2001). […] Furthermore, values of the i coefficients in this study are determined based on best fits to experimental data over a range of concentrations. Therefore, the application of Eq. (15) can be viewed as a physically based expression for fitting the experimental data. Finally, high accuracy is required at dilute concentrations, which have the largest impact on the final size achieved by the hygroscopic aerosol.
Experimental measurements were made in this study to determine the water activity coefficients of AS, CA, and PG. Activity coefficients for NaCl and MN were determined from the studies of Cinkotai (1971) and Ninni (2000), respectively. […] In order to represent the hygroscopic effect of molecular dissociation with a single coefficient, curve fits to the experimental data were based on Eq. (15) for a single component solution. The optimal value of i providing the best fit to the experimental data was calculated using a minimization routine. […] This limit was used to ensure accuracy of the i-values for dilute droplets, which is needed to ensure accurate estimates of final droplet size.
[formula] where m and M represent the mass (kg) and molar mass (kg/kmol) of the solute (s) and water (w). […] Based on Eq. (15), is directly impacts the activity coefficient and ρs influences the mass term in the mole fraction calculation (Eq. 17). […] This effect of initial drug or excipient loading can be taken into account as a function of the initial solute volume fraction (vfs). The resulting growth coefficient (GC1) for a single component droplet is then

The conditions of data set [5]: cited from earlier work; for Predicted van't Hoff factor (i): Eq. (15) fit based on Ninni et al. (2000) measurements (MN) or Cinkotai (1971) correlations (NaCl).

Turning to “Albuterol sulfate [Albuterol sulfate (100%)]”, the “Initial MMAD” value in data set [1] (at inlet to growth zone, SD in parentheses, minimum 4 trials) is 0.38 (0.01)^a μm. Further, in data set [1] (calculated from MMAD and dry particle density), the Initial dgeo was 0.33 μm. For the same molecule, in data set [1] (outlet of 26 cm growth tube, about 0.2 s, 99% RH, assumed equal to the MMAD), the Final dgeo was 0.51 (0.04) μm. Moreover, the d/do in data set [1] (ratio of final to initial geometric diameters) is on record as 1.55 (0.12). Moreover, the “initial mean MMAD (standard deviation)” value in data set [2] is reported as 900 (32.7) nm. Also, the “Initial MMAD” value in data set [3] (CAG-generated albuterol nanoparticles before growth tube, n = 3-4) worked out at 380 nm. For the same molecule, the “Final MMAD (99% RH)” value in data set [3] (after 29 cm growth tube, 37° C., 99% RH) came to 510 nm. The Growth ratio in data set [3] (final size compared with initial size, 29 cm growth tube, 99% RH) stood at 1.35. Moreover, in data set [4], the “Hygroscopic parameter isρs/Ms” value stood at 4.9 kmol/m^3, the “Saturated mass fraction (mfsat)” value was determined as 0.28, the Predicted van't Hoff factor (i) is 2.1 and the “Saturated mole fraction (χsat)” value is recorded as 0.012.
In the case of `O=C(O)CC(O)(CC(=O)O)C(=O)O` [Citric acid (CA), Citric acid], in data set [4], the “Hygroscopic parameter isρs/Ms” value is listed as 16.5 kmol/m^3, the “Saturated mass fraction (mfsat)” value turned out to be 0.57, the “Predicted van't Hoff factor (i)” value was 1.9^d and the “Saturated mole fraction (χsat)” value came to 0.11.
As to `CC(O)CO` (centres unmarked) [Propylene glycol (PG), Propylene glycol], in data set [4], the “Hygroscopic parameter isρs/Ms” value is 13.6 kmol/m^3, the “Saturated mass fraction (mfsat)” value is reported as 1.00, the “Predicted van't Hoff factor (i)” value was 1.0^d and the “Saturated mole fraction (χsat)” value came to 1.00.
For the molecule `[Cl-].[Na+]` [Sodium chloride (NaCl), Sodium chloride], the “Predicted van't Hoff factor (i)” value in data set [5] was 2.1^f; in data set [5] (listed as NaCl), 2.1. The “i coefficient, Raoult's law form of the equation” value in data set [5] (NaCl data of Cinkotai (1971), through mfs = 0.3) was 1.9. Besides, the “Hygroscopic parameter isρs/Ms” value in data set [4] is 77.9 kmol/m^3. In addition, in data set [4], the “Saturated mass fraction (mfsat)” value was 0.265.
Regarding `OC[C@@H](O)[C@@H](O)[C@H](O)[C@H](O)CO` [Mannitol (MN), Mannitol], in data set [5], the “Predicted van't Hoff factor (i)” value is reported as 1.0^e. In data set [4], the “Hygroscopic parameter isρs/Ms” value is given as 8.2 kmol/m^3, the “Saturated mass fraction (mfsat)” value turned out to be 0.15 and the “Saturated mole fraction (χsat)” value turned out to be 0.018.
